Data: patent publication US20250276973A1, “CRYSTAL OF 7H-PYRROLO[2,3-D]PYRIMIDINE-4-AMINE DERIVATIVE” (TAIHO PHARMACEUTICAL CO., LTD., priority 2022, published 2025)
Where two headings read alike, the source gives them in different places.

What was measured:
[1] = Plasma concentration determination test after oral administration; assay type: in vivo; conditions: male beagle dogs, gelatin capsule, 20 mg/kg in terms of free form, hypochlorhydria conditions, three dogs
Protocol: The Compound (1) in free form (type II crystal), the type III crystal of Compound (1) with one equivalent of succinic acid, and the type I crystal of Compound (1) with one equivalent of sorbic acid obtained in the examples were tested for plasma concentrations in male beagle dogs after oral administration under hypochlorhydria conditions.
In order to select three male beagle dogs for the test, plasma concentrations were determined in five male beagle dogs under hypochlorhydria conditions after administration in a solution form and administration in a capsule-filled form. Three dogs with larger differences in AUClast (area under the plasma concentration-time curve from 0 hours after administration to the point at which the final concentration can be calculated by the linear trapezoidal method before Tmax and by the log-trapezoidal method after Tmax) and Cmax (maximum plasma concentration) between the administration in the solution form and the administration in the capsule-filled form were selected. Subsequently, tests were conducted to determine plasma concentrations in them after oral administration of the Compound (1) in free form (type II crystal), the type III crystal of Compound (1) with one equivalent of succinic acid, and the type I crystal of Compound (1) with one equivalent of sorbic acid in capsule-filled forms. The following procedures were employed for the preparation of a liquid dosage, capsule filling, and animal experiments.
Compound (1) in free form was dissolved in a 20% HP-β-CD solution containing 0.1N hydrochloric acid to prepare a solution of 20 mg/5 mL. Compound (1) in free form (type II crystal), the type III crystal of Compound (1) with one equivalent of succinic acid, and the type I crystal of Compound (1) with one equivalent of sorbic acid were each filled into a gelatin capsule at 20 mg/kg in terms of the molecular weight of Compound (1) (free form).
The male beagle dogs selected for the study were fasted starting between 11:00 a.m. to 12:00 p.m. on the day before Compound (1) was administered and fed after blood was collected 8 hours after the administration of the compound. The dogs were not allowed to drink water from 30 minutes before to 2 hours after the administration of the compound, but were allowed to drink freely at other time.
Intravenous administration of atropine (atropine sulfate injection 0.5 mg “Fuso”) at a dose of 0.02 mg/kg was followed by intramuscular administration of pentagastrin at a dose of 0.01 mg/kg 30 minutes prior to the administration of the compound. Thirty minutes after the administration of atropine, the dogs were orally force-fed a capsule filled with the compound, encouraged to self-swallow the capsule with 5 mL of distilled water, and further orally force-fed 50 mL of distilled water using a catheter. Alternatively, the compound dissolved in liquid dosage was administered orally via a catheter at a dose of 20 mg/5 mL/kg, and the catheter was immediately rinsed with 10 mL of distilled water.
Pentagastrin was again intramuscularly administered at 0.01 mg/kg 15 minutes and 1 hour after the administration of the compound.
Before and after (0.25, 0.5, 1, 2, 4, 6, 8, and 24 hours after) the administration, the person in charge of collecting blood held the dog's forelimb to distend the blood vessel using a clothespin or the like. Then, the blood collection site was disinfected with alcohol cotton, and about 0.2 mL of blood was collected using a heparinized syringe and needle. After the blood was drawn, the puncture site was pressed with a cotton pad to adequately stop bleeding. The collected blood samples were ice-cooled, and plasma was isolated by centrifugation as soon as possible. The isolated plasma was immediately frozen on dry ice and then stored frozen in a freezer set at −80° C. […]

[2] = Dynamic vapor sorption (DVS) test; assay type: physicochemical; conditions: 25° C.; for Hygroscopicity (result in words): 5 to 95% RH; for Weight increase under 95% relative humidity: 95% RH
Protocol: Vapor sorption tests were performed using the type II crystal of Compound (1) in free form, the type III crystal of Compound (1) in free form, the type VII crystal of Compound (1) in free form, and the type VIII crystal of Compound (1) in free form obtained in the examples, reference example, and comparative example.
Vapor sorption tests were conducted under the following conditions.
Approximately 10 mg of the sample was filled into a specialized quartz holder to continuously measure and record the weight of the sample at each humidity was under the following conditions. The instrument, including data processing, was handled in accordance with the method and procedure indicated for each instrument. • Instrument: VTI-SA+(manufactured by TA Instruments) • Drying temperature: 60° C. • Heating rate: 1° C./min • Equilibration of drying: Confirmation of no more than 0.01 wt % decrease in 5 minutes within a period not exceeding 300 minutes • Measurement temperature: 25° C. • Equilibration of humidification: Confirmation of no more than 0.01 wt % increase in 5 minutes within a period not exceeding 120 minutes • Relative humidity program: Increase from 5 to 95% RH in increments of 5% RH, and decrease from 95% to 5% RH in increments of 5% RH. • Changes in the weight over the range of the measurement conditions obtained in these tests are shown in FIGS. 9 through 12.
Vapor sorption tests were performed using the type III crystal of Compound (1) with succinic acid, the type I crystal of Compound (1) with citric acid, the type IV crystal of Compound (1) with citric acid, the type I crystal of Compound (1) with sorbic acid, and the type I crystal of Compound (1) with phosphoric acid obtained in the examples, reference example, and comparative examples.
Vapor sorption tests were conducted under the same conditions as in Test Example 2.

[3] = Solid stability test (4 weeks of storage at 80° C., closed system; HPLC); assay type: physicochemical; conditions: for Chemical purity after 4 weeks of storage at 80° C. / Solid stability (result in words): 80° C. (closed system), 4 weeks; for Chemical purity after 4 weeks of storage at 80° C.: glass bottle; for Chemical purity after 4 weeks of storage at 80° C. / Chemical purity before storage: HPLC; for Solid stability (result in words): related substances by HPLC; for Change (chemical purity): after 4 weeks at 80° C. versus before storage; for Chemical purity before storage: UV 220
Protocol: The solid stability of the type II crystal of Compound (1) in free form, the type III crystal of Compound (1) in free form, the type VII crystal of Compound (1) in free form, and the type VIII crystal of Compound (1) in free form obtained in the examples, reference example, and comparative example were evaluated after 4 weeks of storage by the following procedure. • Storage conditions: 80° C. (closed system) (HIFLEX (high-temperature storage chamber manufactured by ETAC)) • Storage period: 4 weeks • Storage volume: Approximately 30 mg • Storage container: Glass bottle
Changes in the mass of the related substances (the amounts of detected substances other than Compound (1)) were analyzed by HPLC according to the following method. Approximately 8 mg of each sample was weighed and dissolved in I mL of a chloroform-methanol mixture (1:1 v/v). Fifty μL of this solution was measured and diluted with 950 μL of an acetonitrile-water mixture (7:3), and 5 μL of the resulting solution was accurately measured and used as the sample for the analysis.
The mass of the related substances in the sample solution was determined by HPLC analysis. The instrument, including data processing, was handled in accordance with the method and procedure indicated for each instrument. • Column: InertSustainSwift C18 (2.1×50 mm, 1.9 μm) manufactured by GL Sciences • UV detection: […] • Column temperature: 40° C. • Flow rate: 0.3 mL/min • Sample cooler: 10° C. • Sample concentration: 0.1 mg/mL • Mobile phase A: 10 mmol/L phosphate buffer (pH 6.8)/acetonitrile (95:5) mixture • Mobile phase B: Acetonitrile • The gradients are shown in Table 4.
The solid stability of the type III crystal of Compound (1) with succinic acid, the type I crystal of Compound (1) with citric acid, the type IV crystal of Compound (1) with citric acid, the type I crystal of Compound (1) with sorbic acid, and the type I crystal of Compound (1) with phosphoric acid obtained in the examples, reference example, and comparative examples were evaluated after 4 weeks of storage. The evaluation method, storage, and measurement conditions were as described in Test Example 1.

[4] = male, beagle, dog, plasma, po, 20 mg/kg

AUC(0-t) [1, 4]	Cmax [1, 4]	tmax ([1]; male, beagle, dog, plasma, po, 20 mg/kg, read-out: tmax)	AUClast [1]	Cmax [1]	tmax [1]	Hygroscopicity (result in words) [2]	Weight increase under 95% relative humidity [2]	Chemical purity after 4 weeks of storage at 80° C. [3]	Change (chemical purity) [3]	Chemical purity before storage [3]	SMILES	Solid stability (result in words) [3]
13 ± 4 µM·h	1260 ± 90 nM	4 h	–	–	–	–	–	–	–	–	C#Cc1c(-c2cnc3ccccc3c2)c2c(N)ncnc2n1C12CCC(NC(=O)c3cnc(C)cn3)(CC1)C2 [N-(4-(4-amino-6-ethynyl-5-(quinolin-3-yl)-7H-pyrrolo[2,3-d]pyrimidin-7-yl)bicyclo[2.2.1]heptan-1-yl)-5-methylpyrazine-2-carboxamide]	–
–	–	–	18.1 ± 13.1 µM·h	1680 ± 880 nM	6.0 ± 2.0 h	hardly hygroscopic	0.26%	99.72%	−0.02%	99.74%	C#Cc1c(-c2cnc3ccccc3c2)c2c(N)ncnc2n1C12CCC(NC(=O)c3cnc(C)cn3)(CC1)C2 [Type I crystal of Compound (1) with sorbic acid] [N-(4-(4-amino-6-ethynyl-5-(quinolin-3-yl)-7H-pyrrolo[2,3-d]pyrimidin-7-yl)bicyclo[2.2.1]heptan-1-yl)-5-methylpyrazine-2-carboxamide]	extremely stable crystals with almost no increase in the related substances
–	–	–	25.1 ± 8.4 µM·h	2240 ± 750 nM	5.3 ± 1.2 h	hardly hygroscopic	0.28%	99.63%	+0.01%	99.62%	C#Cc1c(-c2cnc3ccccc3c2)c2c(N)ncnc2n1C12CCC(NC(=O)c3cnc(C)cn3)(CC1)C2 [Type III crystal of Compound (1) with succinic acid] [N-(4-(4-amino-6-ethynyl-5-(quinolin-3-yl)-7H-pyrrolo[2,3-d]pyrimidin-7-yl)bicyclo[2.2.1]heptan-1-yl)-5-methylpyrazine-2-carboxamide]	extremely stable crystals with almost no increase in the related substances
